Laboratory results published in the NIST ThermoML archive (doi:10.1016/j.jct.2015.03.017).

Test: mn = molality of the nth substance listed, in mol/kg
Settings: 74.66 kPa, Liquid; for speed of sound: Frequency=3 MHz, Sing-around technique in a fixed-path interferometer; for mass density: Vibrating tube method

CCCC[N+](CCCC)(CC(C)C)CC(C)C.[Br-] [N-butyl-N,N-bis(2-methylpropyl)-1-butanaminium bromide] + O
Settings | mass density, 278.15 K [kg/m3] | mass density, 283.15 K [kg/m3] | mass density, 288.15 K [kg/m3] | mass density, 293.15 K [kg/m3] | speed of sound, 278.15 K [m/s] | speed of sound, 283.15 K [m/s] | speed of sound, 288.15 K [m/s] | speed of sound, 293.15 K [m/s] | speed of sound, 298.15 K [m/s]
m1 = 0.01065 | 1000.5 | 1000.23 | 999.628 | 998.731 | 1431.7 | 1452 | 1469.2 | 1485.3 | 1499.3
m1 = 0.01998 | 1000.98 | 1000.71 | 1000.11 | 999.207 | 1433.3 | 1453.7 | 1471.8 | 1487.8 | 1501.8
m1 = 0.0287 | 1001.44 | 1001.16 | 1000.55 | 999.654 | 1435.3 | 1455.5 | 1473.4 | 1489.1 | 1502.9
m1 = 0.03816 | 1001.92 | 1001.65 | 1001.04 | 1000.13 | – | – | – | – | –
m1 = 0.04991 | 1002.55 | 1002.27 | 1001.65 | 1000.74 | 1440.2 | 1460 | 1477.6 | 1493 | 1506.5
m1 = 0.05935 | 1003.05 | 1002.75 | 1002.13 | 1001.22 | 1443 | 1462.6 | 1479.9 | 1495.1 | 1508.5
m1 = 0.06884 | 1003.54 | 1003.25 | 1002.62 | 1001.71 | 1446.3 | 1465.8 | 1483.1 | 1498.3 | 1511.6
m1 = 0.08078 | 1004.18 | 1003.88 | 1003.25 | 1002.33 | 1449 | 1468.1 | 1485.2 | 1500.2 | 1513.4
m1 = 0.0922 | 1004.77 | 1004.47 | 1003.83 | 1002.91 | 1451.4 | 1470.1 | 1486.8 | 1501.5 | 1514.3
m1 = 0.1044 | 1005.43 | 1005.11 | 1004.46 | 1003.53 | 1453.6 | 1472.4 | 1488.9 | 1503.4 | 1516

CCCC[N+](CCCC)(C(C)CC)C(C)CC.[Br-] (stereo unspecified) [N-butyl-N,N-bis(1-methylpropyl)-1-butanaminium bromide] + O
Settings | mass density, 278.15 K [kg/m3] | mass density, 283.15 K [kg/m3] | mass density, 288.15 K [kg/m3] | mass density, 293.15 K [kg/m3] | speed of sound, 278.15 K [m/s] | speed of sound, 283.15 K [m/s] | speed of sound, 288.15 K [m/s] | speed of sound, 293.15 K [m/s] | speed of sound, 298.15 K [m/s]
m1 = 0.01181 | 1000.58 | 1000.3 | 999.698 | 998.799 | 1431.4 | 1452 | 1470.2 | 1486.2 | 1500.2
m1 = 0.02026 | 1001.03 | 1000.75 | 1000.13 | 999.231 | 1433.3 | 1453.8 | 1472 | 1488 | 1502.1
m1 = 0.03102 | 1001.6 | 1001.32 | 1000.7 | 999.791 | 1435.8 | 1456.1 | 1474.1 | 1489.9 | 1503.9
m1 = 0.04017 | 1002.1 | 1001.81 | 1001.19 | 1000.28 | 1438.2 | 1458.3 | 1476 | 1491.6 | 1505.3
m1 = 0.05043 | 1002.66 | 1002.36 | 1001.73 | 1000.81 | 1440 | 1459.8 | 1477.4 | 1492.9 | 1506.4
m1 = 0.0598 | 1003.17 | 1002.87 | 1002.24 | 1001.32 | 1442.6 | 1462.2 | 1479.5 | 1494.8 | 1508.4
m1 = 0.06968 | 1003.71 | 1003.41 | 1002.76 | 1001.84 | 1445 | 1464.4 | 1481.6 | 1496.6 | 1509.9
m1 = 0.08191 | 1004.37 | 1004.06 | 1003.42 | 1002.5 | 1447.4 | 1466.7 | 1483.7 | 1498.7 | 1511.8
m1 = 0.09038 | 1004.85 | 1004.53 | 1003.89 | 1002.96 | 1450.6 | 1469.6 | 1486.4 | 1501.1 | 1514
m1 = 0.1036 | 1005.56 | 1005.25 | 1004.59 | 1003.66 | 1453.5 | 1472.2 | 1488.9 | 1503.7 | 1516.5

CCC(C)[N+](C(C)CC)(C(C)CC)C(C)CC.[Br-] (stereo unspecified) [tetra-sec-butyl ammonium bromide] + O
Settings | mass density, 278.15 K [kg/m3] | mass density, 283.15 K [kg/m3] | mass density, 288.15 K [kg/m3] | mass density, 293.15 K [kg/m3] | speed of sound, 278.15 K [m/s] | speed of sound, 283.15 K [m/s] | speed of sound, 288.15 K [m/s] | speed of sound, 293.15 K [m/s] | speed of sound, 298.15 K [m/s]
m1 = 0.009699 | 1000.43 | 1000.15 | 999.553 | 998.653 | 1429.9 | 1450.7 | 1469 | 1485.1 | 1499
m1 = 0.01981 | 1000.92 | 1000.64 | 1000.03 | 999.127 | 1432.6 | 1453.1 | 1471.2 | 1487.4 | 1500.9
m1 = 0.03014 | – | – | – | – | 1435.2 | 1455.5 | 1473.4 | 1489.2 | 1503
m1 = 0.04066 | 1002 | 1001.68 | 1001.04 | 1000.12 | 1438.2 | 1458.2 | 1475.9 | 1491.5 | 1505.2
m1 = 0.04983 | 1002.49 | 1002.14 | 1001.5 | 1000.59 | 1440.2 | 1460.1 | 1477.6 | 1493.1 | 1506.5
m1 = 0.0598 | 1003.02 | 1002.66 | 1002 | 1001.08 | 1443.3 | 1463 | 1480.4 | 1495.4 | 1508.3
m1 = 0.07027 | 1003.58 | 1003.21 | 1002.55 | 1001.63 | 1445.7 | 1465.7 | 1483.2 | 1497.7 | 1510.9
m1 = 0.07997 | 1004.11 | 1003.75 | 1003.08 | 1002.12 | 1448.5 | 1468.4 | 1485 | 1499.7 | 1512
m1 = 0.08984 | 1004.68 | 1004.31 | 1003.61 | 1002.64 | 1451.4 | 1471.3 | 1488 | 1501.6 | 1514.2
m1 = 0.1018 | 1005.32 | 1004.97 | 1004.26 | 1003.28 | 1454.9 | 1474.9 | 1490.9 | 1504 | 1516

CC(C)C[N+](CC(C)C)(CC(C)C)CC(C)C.[Br-] [tetra-iso-butyl ammonium bromide] + O
Settings | mass density, 278.15 K [kg/m3] | mass density, 283.15 K [kg/m3] | mass density, 288.15 K [kg/m3] | mass density, 293.15 K [kg/m3] | speed of sound, 278.15 K [m/s] | speed of sound, 283.15 K [m/s] | speed of sound, 288.15 K [m/s] | speed of sound, 293.15 K [m/s] | speed of sound, 298.15 K [m/s]
m1 = 0.01022 | 1000.51 | 1000.24 | 999.634 | 998.735 | – | – | – | – | –
m1 = 0.02021 | 1001.05 | 1000.77 | 1000.16 | 999.258 | 1434 | 1454.4 | 1472.5 | 1488.5 | 1502.6
m1 = 0.02983 | 1001.57 | 1001.29 | 1000.67 | 999.758 | 1437 | 1457 | 1475 | 1490.5 | 1503.3
m1 = 0.03847 | 1002.04 | 1001.75 | 1001.12 | 1000.21 | 1438.5 | 1458.5 | 1476.2 | 1491.8 | 1505.5
m1 = 0.04829 | 1002.57 | 1002.27 | 1001.63 | 1000.71 | 1441.3 | 1461.2 | 1478.9 | 1494.5 | 1508.1
m1 = 0.05621 | 1002.99 | 1002.68 | 1002.04 | 1001.11 | 1443.4 | 1463.6 | 1480.5 | 1495.7 | 1509.7
m1 = 0.06888 | 1003.67 | 1003.34 | 1002.7 | 1001.76 | 1447 | 1466.5 | 1483.8 | 1498.9 | 1512.2
m1 = 0.07666 | 1004.08 | 1003.76 | 1003.1 | 1002.16 | 1448.2 | 1467.5 | 1484.6 | 1499.7 | 1512.9
m1 = 0.08623 | 1004.6 | 1004.26 | 1003.6 | 1002.64 | 1451.5 | 1469.4 | 1486.2 | 1500.9 | 1513.8
m1 = 0.1002 | 1005.35 | 1005 | 1004.33 | 1003.37 | 1453.7 | 1472.5 | 1489.2 | 1503.9 | 1516.7
